The subject of assay [1] is RCC4, RCC4/VHL, SN12C and SN12C-VHL shRNA cells. The assay is described as follows: Vacuole formation by light and time-lapse microscopy. It is filed as cell-based. The method, then: A. Phase contrast pictures of VHL-deficient RCC4 and SN12C-VHL shRNA cells and VHL-positive cells RCC4 and SN12C after 20 hrs of 1.25 μM STF-62247. B. Immunostaining for LC3 following STF-62247 treatment at 1.25 μM for 20 hrs with or without 2 mM of 3-MA in RCC4 with and without VHL cells. After treatment, cells were fixed, permeabilized and processed for the detection of punctuate staining by indirect immunofluorescence. C. Autophagic vacuoles stained with monodansylcadaverine (MDC). After STF-62247 treatment in the same conditions, MDC was added for the last 10 minutes. Cells were fixed, washed with PBS and observed directly under microscope. D. Western blot for LC3 in RCC4, RCC4/VHL, SN12C, and SN12C-VHL shRNA cells after STF-62247 treatment with or without 3-MA. Nutrient starvation (EBSS) is used as positive control. […] Viability is measured by trypan blue exclusion assay and is represented by the average of three different experiments in duplicate as the percent of treated on untreated cells. […]
A. RCC4 and RCC4/VHL were treated with 1.25 μM of each 19 analogs for 20 hours and the presence of vacuoles was examined under light microscopy. […] Acidic vesicle organelles (AVO) measured by FACS analysis in cells treated with 1.25 μM of STF-62247 or with compounds 21, 15, 25, 47, and 53 and stained with acridine orange.

Another assay deals with SN12C-VHL shRNA tumors. The assay can be described thus: Tumor growth of SN12C-VHL shRNA cells in scid mice. It is filed as in vivo. Particulars: VHL-deficient tumors, daily intraperitoneal treatment, FIG. 1E. As for the experimental part: (§1) In vivo studies. 2−3×10^6 SN12C and SN12C-VHL shRNA cells were injected in male scid mice 4-6 weeks old. When tumor volume reached 150 mm^3, mice were randomized into vehicle control group or STF-62247 treatment group. Mice were treated every day with […] of STF-62247 intraperitoneally. Tumor growth was measured every 2-3 days after the drug treatment was started.
(§2) A. RCC4 and RCC4/VHL cells were labeled with EYFP and the effect of STF-62247 was monitored by fluorescence in each cell type separately. Cells are pseudocolored. B. Clonogenic assay in RCC4, RCC4/VHL, SN12C, SN12C-VHL shRNA cells in the presence of STF-62247 (0-30 μM). Each point of the cell survival is calculated by the average of three different experiments in triplicate as the percent of treated on untreated plate. The error bars represented the standard error of the mean (SEM). C. Upper Panel, clonogenic assay in RCC4 infected with HIF-1α or HIF-2α shRNA by retroviral infection in presence of drug in same conditions described above. Bottom panel, HIF-1α or HIF-2α protein expression evaluated by western blot in RCC4 cells with HIF-1α or HIF-2α shRNA. Tubulin is used as loading control. […] Tumor volume was measured every 2-3 days and data are represented in fold. Five tumors in each condition were analyzed where * p<0.05, **p<0.01 and ***p<0.005.

For the next assay, the system named is SN12C tumors. The assay can be described thus: Tumor growth of SN12C cells (wild-type VHL) in scid mice. It is filed as in vivo. Conditions: daily intraperitoneal treatment, FIG. 1E. The method, then:
as §1, §2

The subject of the next assay is LC3. The assay can be described thus: LC3 processing by Western blot and immunostaining. It is filed as cell-based. Particulars: STF-62247 treatment, FIG. 2D, 2E. The method, then: Western blot analysis. After treatments, cells were lysed in urea buffer (9M urea, 75 mM Tris (pH 7.5), 150 mM b-mercaptoethanol), placed on ice for 10 minutes and sonicated briefly (15 seconds). Extracts were centrifugated at 8,000×g for 10 minutes to eliminate insoluble material. Lysates were quantitated using Bio-Rad protein Assay (Bio-Rad Laboratories) and 20-30 μg of proteins were separated on a 7.5% or 15% bis-acrylamide gels and then transferred onto PVDF membranes. Proteins were visualized using HIF-2α (Novus Biological), HIF-1α, pVHL and BiP (BD Biosciences), LC3 (MBL), Atg5, or α-tubulin antibodies.
Immunofluorescence staining. Cells were seeded on glass coverslips and at subconfluence, STF-62247 was added at 1.25 μM for RCC4 and 3.75 μM for SN12C. After 20 hours, cells were fixed in 3.7% formaldehyde for 10 min at room temperature and washed in PBS. Then cells were permeabilized in 0.2% Triton X-100 for 5 min at room temperature and washed in PBS. The coverslips were incubated with primary antibody LC3 diluted 1:500 in PBS containing 0.2% BSA for 1 hour at room temperature. Cells were washed three times in PBS-BSA and the bound primary antibody was detected using a fluorescein-conjugated secondary antibody (ALEXA) diluted 1:500 in PBS-BSA and incubated for 1 hour. Coverslips were washed and mounted in mounting medium from Vector Laboratories according to the manufacturer's instructions. Cells were examined with a confocal microscope
A. Phase contrast pictures of VHL-deficient RCC4 and SN12C-VHL shRNA cells and VHL-positive cells RCC4 and SN12C after 20 hrs of 1.25 μM STF-62247. B. Immunostaining for LC3 following STF-62247 treatment at 1.25 μM for 20 hrs with or without 2 mM of 3-MA in RCC4 with and without VHL cells. After treatment, cells were fixed, permeabilized and processed for the detection of punctuate staining by indirect immunofluorescence. C. Autophagic vacuoles stained with monodansylcadaverine (MDC). After STF-62247 treatment in the same conditions, MDC was added for the last 10 minutes. Cells were fixed, washed with PBS and observed directly under microscope. D. Western blot for LC3 in RCC4, RCC4/VHL, SN12C, and SN12C-VHL shRNA cells after STF-62247 treatment with or without 3-MA. Nutrient starvation (EBSS) is used as positive control. E. Western blot for LC3 in RCC4 and RCC4/VHL with different concentrations of STF-62247. Tubulin was used as loading control. F. Cell viability assay in VHL-deficient RCC4 and wild-type VHL cells treated with 1 mM of 3-MA, 1.25 μM of STF-62247 alone or in combination for 24 hrs. Viability is measured by trypan blue exclusion assay and is represented by the average of three different experiments in duplicate as the percent of treated on untreated cells. The error bars are represented as SEM.
A. VHL-deficient RCC4 and wild-type VHL were incubated in presence of 10 μM LY294002, or 1 μg/mlBrefeldin A with 1.25 μM of STF-62247 for 20 hrs and the presence of vacuoles was examined under light microscopy. B,C. LC3 processing was evaluated by Western blot after the treatment with Brefeldin A or LY294002 in presence or absence of STF-62247 as described above. Tubulin was used as loading control. D. Cells were treated with 1.25 μM of STF-62247 with or without 2 mM of 3-MA, 1 μg/ml of Brefeldin A for 20 hrs. For the last 15 min, acidic components were stained with 1 μg/ml of acridine orange and visualized under fluorescence microscope. […] F. Quantification of the FACS analysis. The data are calculated as the average of three different experiments as relative units of treated over untreated cells. The error bars are represented as the standard error of the mean (SEM).
B,C. LC3 processing was evaluated by Western blot after the treatment with U0126 or tunicamycin in presence or absence of STF-62247 as described above. Tubulin was used as loading control.

Each structure is given as a SMILES string. Entries after “also recorded” stand apart in the source; their conditions may differ.

These results are taken from patent publication US20110105436A1, “HETEROARYL COMPOUNDS, COMPOSITIONS, AND METHODS OF USE IN CANCER TREATMENT” (AUCKLAND UNISERVICES LIMITED, priority 2008, published 2011).

On to `Cc1cccc(Nc2nc(-c3ccncc3)cs2)c1` [Compound 5, N-(3-Methylphenyl)-4-(4-pyridinyl)-1,3-thiazol-2-amine], for which the vacuole formation entry in assay [1] (1.25 μM, 20 hrs, FIG. 2A) is “accumulated intracytoplasmic vacuoles characteristic of cells undergoing autophagy”. In assay [1] (time-lapse for 48 hours, RCC cells with and without VHL), the “time of appearance of vacuoles after addition” value turned out to be 3 h. For the same molecule, the tumor growth result with SN12C-VHL shRNA tumors is recorded as “significantly reduced tumor growth in VHL-deficient cells”; in the assay with SN12C tumors, “did not have any effect on the growth of SN12C tumor cells that have wild-type VHL”. In addition, the “LC3-II (lipidated form)” value with LC3 was “induced by STF-62247 treatment; also recorded: increases in a concentration-dependent manner”.
